Results: US9238016B2, “Antibiotic composition comprising flufenamic acid as an active ingredient” (SUNGKYUNKWAN UNIVERSITY FOUNDATION FOR CORPORATE …, priority 2010, dated 2016)
≈ marks a conversion by molar mass, not a printed value. Blank lines part the entries; values can stand above or below the molecule they belong to.

Key:
[1] = test system: MRSA; test: MICs of antibiotics against MRSA in the presence of flufenamic acid (synergy); format: cell-based, Staphylococcus aureus; settings: for susceptibility of MRSA to the antibiotic in the presence of FLF: with FLF (FIG. 4B, 4C)
[2] = test system: S. aureus MSSA; test: MIC by broth dilution method; format: cell-based; settings: Staphylococcus aureus, 24 hours of incubation
[3] = test system: S. aureus MRSA; test: MIC by broth dilution method; format: cell-based, Staphylococcus aureus
Protocol: (§1) FLF was assayed for inhibitory activity against Methicillin-resistant staphylococcus aureus (MRSA). In this regard, Methicillin-resistant Staphylococcus aureus (MRSA) was cultured overnight and 200-fold diluted in 2 mL of LB containing various concentrations of FLF. After additional incubation at 37° C. for 8 hours, cell densities were measured by recoding OD at 600 nm.
(§2) FLF was examined for inhibitory activity against various bacteria. Staphylococcus epidermidis, Bacillus subtilis, Listeria monocytogenes and Enterococcus faecium were cultured overnight and 200-fold diluted in 2 mL of LB containing various concentrations of FLF. Cell densities were determined by measuring the OD at 600 nm after incubation at 37° C. for 8 hours. The MICs of FLF were determined using a broth dilution method. In brief, bacteria were inoculated into LB containing serially diluted concentrations of FLF in 96-well microplates. After 24 hours of incubation, bacterial growth was examined. Antibacterial activity of FLF was tested over various Gram-positive bacteria including Staphylococcus epidermidis, Bacillus subtilis, Listeria monocytogenes, and Enterococcus faecium.

[4] = test system: B. subtilis; test: MIC by broth dilution method; format: cell-based; settings: Bacillus subtilis, 24 hours of incubation
Protocol: as §2

[5] = test system: E. faecium; test: MIC by broth dilution method; format: cell-based; settings: Enterococcus faecium, 24 hours of incubation
Protocol: as §2

[6] = test system: L. monocytogenes; test: MIC by broth dilution method; format: cell-based; settings: Listeria monocytogenes, 24 hours of incubation
Protocol: as §2

[7] = test system: S. epidermidis; test: MIC by broth dilution method; format: cell-based; settings: Staphylococcus epidermidis, 24 hours of incubation
Protocol: as §2

[8] = test system: Methicillin-resistant Staphylococcus aureus (MRSA); test: Growth inhibition, cell density OD 600 nm; format: cell-based; settings: 8 h, read-out: growth inhibited
Protocol: as §1

[9] = test system: Bacillus subtilis; test: Growth inhibition, cell density OD 600 nm; format: cell-based; settings: 20~40 μg/mL FLF, 8 hours
Protocol: as §2

[10] = test system: Enterococcus faecium; test: Growth inhibition, cell density OD 600 nm; format: cell-based; settings: 20~40 μg/mL FLF, 8 hours
Protocol: as §2

[11] = test system: Listeria monocytogenes; test: Growth inhibition, cell density OD 600 nm; format: cell-based; settings: 20~40 μg/mL FLF, 8 hours
Protocol: as §2

[12] = test system: Staphylococcus epidermidis; test: Growth inhibition, cell density OD 600 nm; format: cell-based; settings: 20~40 μg/mL FLF, 8 hours
Protocol: as §2

[13] = target: T1, SA1606 (Staphylococcus aureus, UniProt Q2FXE2); test: Binding affinity by isothermal titration calorimetry; set-up: species or system S. aureus; settings: ITC, 10 mM HEPES pH 7.0, 3% DMSO; read-out: dissociation constant (Kd)
T1 sequence (Q2FXE2 1-277 N135K/V136A/R184H/A227G/T230I/K274T): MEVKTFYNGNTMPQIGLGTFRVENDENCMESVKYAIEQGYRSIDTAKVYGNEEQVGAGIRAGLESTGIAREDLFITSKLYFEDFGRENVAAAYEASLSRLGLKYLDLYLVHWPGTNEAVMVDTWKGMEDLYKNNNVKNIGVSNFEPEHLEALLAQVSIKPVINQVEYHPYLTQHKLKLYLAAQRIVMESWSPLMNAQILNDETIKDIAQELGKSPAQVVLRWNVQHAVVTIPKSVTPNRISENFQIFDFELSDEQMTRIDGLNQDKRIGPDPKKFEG
Description: (§3) Genes of SA1606 (GenBank number: BAB42874) and […] (GenBank number: BAB43292) were amplified using PCR with the genomic DNA of S. aureus N315 serving as a template. PCR primers were 5′-[…] […]-3′ (SEQ ID NO: 4) and 5′-[…]-3′ (SEQ ID NO: 5) for SA1606, and 5′-[…]-3′ (SEQ ID NO: 6) and 5′-5 […]-3′ (SEQ ID NO: 7) for SA2001. Ncol and Xhol restriction sites were incorporated into the forward primer sequences and the reverse primer sequences, respectively. The PCR products were digested with Ncol and Xhol and inserted into Ncol/Xhol-digested pET28a vectors (Novagen). The DNAs 10 thus ligated were transformed into E. coli BL21 DE3 (Invitrogen). Coding sequences of the cloned genes SA1606 and SA2001 were confirmed by nucleotide sequencing. Recombinant SA1606 and SA2001 with histidine tag at the C-terminus were expressed in E. coli and then loaded into Hi-Trap chelating 15 columns (GE Healthcare) equilibrated with buffer A (20 mM HEPES, pH 7.5, 50 mM imadazole and 500 mM NaCl). […]
(§4) Binding affinity for SA1606 and SA2001 of FLF was measured using VP-ITC Micro calorimeter (MicroCal Inc). […] Thereafter, the affinity of FLF for the proteins were calculated on the basis of the heat generated upon the binding of FLF to the proteins. The data was analyzed with ORIGIN software (MicroCal Inc).

[14] = target: T2, SA2001 (Staphylococcus aureus, UniProt Q2FW57, N2D); test: as above; set-up: species or system S. aureus; settings: ITC, 10 mM HEPES pH 7.0, 3% DMSO; read-out: dissociation constant (Kd)
T2 sequence (Q2FW57 1-279 N2D): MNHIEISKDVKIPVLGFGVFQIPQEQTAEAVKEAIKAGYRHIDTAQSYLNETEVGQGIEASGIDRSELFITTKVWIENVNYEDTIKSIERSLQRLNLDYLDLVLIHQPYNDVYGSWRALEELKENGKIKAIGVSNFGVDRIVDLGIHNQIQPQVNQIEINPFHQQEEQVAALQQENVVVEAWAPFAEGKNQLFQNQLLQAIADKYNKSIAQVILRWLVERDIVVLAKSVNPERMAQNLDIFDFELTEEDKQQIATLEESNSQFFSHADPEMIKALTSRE
Description: as §3, §4

[15] = target: T1, SA1606; test: Aldo-keto reductase enzymatic assay (NADPH absorbance 340 nm, methylglyoxal); format: biochemical, S. aureus; settings: 0.5 mM NADPH, 5 mM methylglyoxal, 10 μM enzyme, pH 7.0
Protocol: (§5) Aldo-keto reductase (AKR) activity was measured to examine whether FLF inhibits the enzymatic activities of SA1606 and SA2001 on the basis of the data of Example 8 showing the binding of FLF to SA16006 and SA2001. On the whole, bacterial AKR catalyzes the reduction of various chemicals with NADPH. […] As is evidenced in Example 6, SA1606 and SA2001 have structural and functional similarity with the human aldo-keto reductase AKR1C3 and the bacterial aldo-keto reductase DkgA. Thus, the enzymatic activity of […] was measured to analyze the inhibitory activity of FLF. The reaction for evaluating enzymatic activity was comprised of 0.5 mM NADPH, 5 mM methylglyoxal and 10 μM aldo-keto reductase in 50 mM sodium phosphate buffer, pH 7.0. Absorbance at 340 nm of the reaction was measured for 10 min to calculate the consumption of NADPH.

[16] = target: T3, SA2001 (Staphylococcus aureus, UniProt Q2FW57); test: as above; format: biochemical, S. aureus; settings: 0.5 mM NADPH, 5 mM methylglyoxal, 10 μM enzyme, pH 7.0
T3 sequence (Q2FW57 1-279 N2D): T2 sequence (Q2FW57 1-279 N2D)
Protocol: as §5

[17] = test system: MRSA; test: Screening of Prestwick chemical library for inhibitory activity against bacteria; format: cell-based, S. aureus; settings: 100 μg/mL, 24 hours
Protocol: To screen compounds having inhibitory activity against bacteria, MRSA was 200-fold diluted in 0.2 mL of LB in 96-well microplates and cultured overnight at 37° C. with agitation at 180 RPM. Prestwick chemical library was added at a final concentration of 100 μg/mL per well. The microplates were incubated at 37° C. for 24 hours with agitation at 180 RPM and the optical density at 600 nm was measured.

MICs of antibiotic against MRSA ([1]; 10 μg/ml FLF): 128 µg/mL | MICs of antibiotic against MRSA ([1]; 20 μg/ml FLF): 64 µg/mL | MICs of antibiotic against MRSA ([1]; 30 μg/ml FLF): 16 µg/mL | MICs of antibiotic against MRSA ([1]; 40 μg/ml FLF): 4 µg/mL | MICs of antibiotic against MRSA ([1]; No FLF): 128 µg/mL
Structure (SMILES): CC(=O)OCC1=C(C(=O)O)N2C(=O)[C@@H](NC(=O)Cc3cccs3)[C@H]2SC1 [Cephalothin]
susceptibility of MRSA to the antibiotic in the presence of FLF [1]: far more susceptible

Structure (SMILES): O=C(O)c1ccccc1Nc1cccc(C(F)(F)F)c1 [FLF, flufenamic acid]
MIC [2]: 64 µg/mL (≈ 228 µM) | MICs ([3]; S. aureus MRSA, 24 hours of incubation): 64 µg/mL | MIC ([3]; Staphylococcus aureus, MRSA, 24 h, read-out: MICs): 64 µg/mL (≈ 228 µM) | MIC [4]: 32 µg/mL (≈ 114 µM) | MIC [5]: 32 µg/mL (≈ 114 µM) | MIC [6]: 32 µg/mL (≈ 114 µM) | MIC [7]: 64 µg/mL (≈ 228 µM) | inhibition at 40 µg/mL [8]: 90% | growth inhibited [9]: 90% | growth inhibited [10]: 90% | growth inhibited [11]: 90% | growth inhibited [12]: 90% | synergistic effect with classical antibiotics ([1]; FLF in combination with Norfloxacin, Oxacillin or Cephalothin, MRSA): synergistically inhibited | Kd [13]: 14.5 µM | Kd [14]: 38.1 µM | enzymatic activity (reduction of methylglyoxal with NADPH) in the presence of FLF [15]: inhibited | enzymatic activity (reduction of methylglyoxal with NADPH) in the presence of FLF [16]: inhibited | inhibitory activity against bacteria (OD 600 nm) in library screen [17]: most inhibitory

MICs of antibiotic against MRSA ([1]; 10 μg/ml FLF): 64 µg/mL | MICs of antibiotic against MRSA ([1]; 20 μg/ml FLF): 32 µg/mL | MICs of antibiotic against MRSA ([1]; 30 μg/ml FLF): 16 µg/mL | MICs of antibiotic against MRSA ([1]; 40 μg/ml FLF): 8 µg/mL | MICs of antibiotic against MRSA ([1]; No FLF): 128 µg/mL
Structure (SMILES): CCn1cc(C(=O)O)c(=O)c2cc(F)c(N3CCNCC3)cc21 [Norfloxacin]

Structure (SMILES): Cc1onc(-c2ccccc2)c1C(=O)N[C@@H]1C(=O)N2[C@@H]1SC(C)(C)[C@@H]2C(=O)O [Oxacillin]
MICs of antibiotic against MRSA ([1]; 10 μg/ml FLF): 256 µg/mL | MICs of antibiotic against MRSA ([1]; 30 μg/ml FLF): 32 µg/mL | MICs of antibiotic against MRSA ([1]; 40 μg/ml FLF): 8 µg/mL | MICs of antibiotic against MRSA ([1]; No FLF): >256 µg/mL | susceptibility of MRSA to the antibiotic in the presence of FLF [1]: far more susceptible
